# Laboratory results taken from patent US4935435A, “Use of tetrazole derivatives” (May & Baker Limited, priority 1988, dated 1990).
# Legend:
# [1] = tested on: collagen-induced arthritis in rats; assay: collagen-induced arthritis in rats (joint size by electronic calipers, erosion and inflammation); format: in vivo, rat
# Procedure: Joint sizes were measured periodically, for 70 days, by means of electronic calipers placed across the tibio-tarsal junction.
# [2] = tested on: collagen-induced arthritis in rats; assay: X-radiography of hind paws on day 71, collagen-induced arthritis in rats; format: in vivo; settings: rat hind paws; 71st day; oral 30 mg/kg per day; versus control
# Procedure: On the 71st day the hind paws were examined by X-radiography. Joint damage was assessed according to five parameters and scored on an arbitrary scale of 0 to 5.
compound,measurement,setting,value
"CC(=O)c1cc(F)cc(NC(=O)c2nnn[nH]2)c1O [compound A, 3'-Acetyl-5'-fluoro-2'-hydroxytetrazole-5-carboxanilide]",mean joint diameter (tibio-tarsal junction) over the 70 days,"[1]; oral 30 mg/kg per day, 70 days, control animals increased from 7.6 mm to 8.1 mm",7.7 mm
same,erosion and inflammation caused by collagen-induced arthritis,"[1]; oral, 30 mg/kg body weight per day, compared with control animals",inhibited erosion and inflammation
same,"joint damage by X-radiography, five parameters scored on an arbitrary scale of 0 to 5",[2],For each of the five parameters the joints of the control animals were more severely damaged than those of the treated animals
